The results in this text go back to patent US10894043B2, “Pharmaceutical composition” (Kyowa Kirin Co., Ltd., priority 2016, dated 2021).

Assay [1] concerns laser-induced choroidal neovascularization model of a cynomolgus monkey. The experiment in a line: Test Example 8: laser-induced choroidal neovascularization model of cynomolgus monkey, incidence of grade 4 by fluorescein fundus angiography. It is filed as in vivo. The following applies: n = 6. As for the experimental part:
Twenty-one days before the start of drug administration, both the eyes of each animal (all cases) were irradiated with laser to prepare animal models. Drops of a mydriatic agent were placed in the animal eyes to be irradiated. After confirmation of mydriasis, a mixed solution of ketamine hydrochloride (50 mg/mL) and an aqueous xylazine solution (20 mg/mL) [7:1 (v/v)] was intramuscularly administered (0.2 mL/kg or 10 mg/kg) to each animal. An appropriate amount of a special aid for contact lens placement to the cornea (Scopisol Solution for Eye) was added dropwise to an eyepiece of a retinal laser lens. The retinal laser lens was pressure-bonded to the eyes to be irradiated, and a yellow spot was confirmed. After the confirmation of a yellow spot, 8 sites around the yellow spot excluding the central pit were irradiated with green laser (wavelength: 532 nm, irradiation spot size: 80 μm, irradiation time: 0.1 sec, output: 1000 mW) using a multicolor laser photocoagulator (MC-500, Nidek Co., Ltd.).
According to the test configuration shown in Table 46, a vehicle, the nanoparticle composition of the present invention prepared according to Example 1, and the solution composition obtained in Comparative Example 2 were administered four times a day by ocular instillation for 35 days to the animal. Aflibercept (EYLEA(Registered Trademark) solution for intravitreal injection, Bayer Corp.) was intravitreally injected (once) to the animal.
Ophthalmoscopic examination was carried out during the acclimatization period (day −1) and during the administration period (administration days 7, 14, 21, 28 and 34). Macroscopic examination and light reflex examination were carried out using a portable slit lamp (SL-15, Kowa Co., Ltd.). Drops of a mydriatic agent were placed in the animal eyes. After confirmation of mydriasis, ketamine hydrochloride (50 mg/mL) was intramuscularly administered (0.2 mL/kg or 10 mg/kg) to each animal. The anterior segment of the eye and the ocular media were examined using a portable slit lamp, while the eyegrounds were examined using a head-type binocular indirect ophthalmoscope (IO-aSmall Pupil, Neitz Instruments Co., Ltd.). The eyegrounds were photographed using a fundus camera (VX-10a, Kowa Co., Ltd.) in all cases.
Fluorescein fundus angiography was carried out during the acclimatization period (day −1) and during the administration period (administration days 7, 14, 21, 28 and 34). For examination, a contrast medium (Fluorescite Intravenous Injection 500 mg, Alcon Japan Ltd.) was administered (0.1 mL/kg or 0.1 mL/s) from the cephalic vein of the forearm under mydriasis and anesthesia of the macroscopic examination and the ophthalmoscopic examination. Approximately 1, 3, and 5 minutes after the contrast medium administration, photographs were taken using a fundus camera. Choroidal neovascular grading was carried out on an irradiation spot basis. The fluorescein fundus angiographic images were observed and graded on an irradiation spot basis according to the criteria of Table 47.
The incidences of grades 1 to 4 of each eye at each point in time of examination were each calculated according to the following expression: Incidence of grade (%)=The number of irradiation spots/8×100

The subject of assay [2] is laser-induced choroidal neovascularization model of a rat. The experiment in a line: Test Example 7: anti-angiogenic effect on laser-induced choroidal neovascularization model of rat. It is filed as in vivo, Brown Norway rat. To be noted: 14 days after laser irradiation, ocular instillation twice a day 5 μL/eye (aflibercept: intravitreal 5 μL/eye once), n=12 or 13, * p<0.05 vs vehicle. On the procedure: The mydriasis of the eyeballs of each male Brown Norway rat (n=12 or 13 for each group) was caused with mydriatic eye drops for examination. A ketamine hydrochloride/xylazine hydrochloride (7:1, v/v) mixed solution was intramuscularly administered (1 mL/kg) to the femur for general anesthesia. Then, the right eyeground was observed using a slit lamp, and 8 sites in the retina were irradiated with laser (wavelength: 532 nm, spot size: 80 μm, irradiation time: 0.05 sec, output: 120 mW) using a multicolor laser photocoagulator to prepare laser-induced choroidal neovascularization model animals.
A vehicle of Example 1 or the nanoparticle composition of the present invention obtained in each of Examples 1 and 2 was administered twice a day by ocular instillation (5 μL/eye, 6 hr:18 hr interval) to each model animal from immediately after the laser irradiation to 14 days after the laser irradiation. […]
A choroidal neovascular site was photographed using a confocal microscope (Nikon ECLIPSE TE 2000-U). For choroidal neovascular evaluation, an area (unit: pixel) that contained a newly formed blood vessel and was at the inner side relative to the highest raised portion was calculated using ImageJ (National Institutes of Health). […]

On to Aflibercept [Aflibercept (EYLEA)], for which the “Incidence of grade 4” value in assay [1] (administration day 7, mean) was 4.2%; in assay [1] (administration day 14, mean), 4.2%; in assay [1] (administration day 21, mean), 4.2%; in assay [1] (administration day 28, mean), 4.2%; in assay [1] (administration day 34, mean), 4.2%; in assay [1] (day −1 (acclimatization period, before administration), mean), 43.8%. Further, in assay [2], the “choroidal neovascularization area, mean” value is recorded as 102931.7* pixel.
